From doi:10.1101/2024.03.29.587371v1 (biorxiv, 2024) come the findings set out here.

Format in all cases: biochemical
Assay [1] addresses T1, AtFBA4 (SUMO-AtFBA4) (Arabidopsis thaliana, UniProt F4KGQ0).
T1 sequence (F4KGQ0 1-393): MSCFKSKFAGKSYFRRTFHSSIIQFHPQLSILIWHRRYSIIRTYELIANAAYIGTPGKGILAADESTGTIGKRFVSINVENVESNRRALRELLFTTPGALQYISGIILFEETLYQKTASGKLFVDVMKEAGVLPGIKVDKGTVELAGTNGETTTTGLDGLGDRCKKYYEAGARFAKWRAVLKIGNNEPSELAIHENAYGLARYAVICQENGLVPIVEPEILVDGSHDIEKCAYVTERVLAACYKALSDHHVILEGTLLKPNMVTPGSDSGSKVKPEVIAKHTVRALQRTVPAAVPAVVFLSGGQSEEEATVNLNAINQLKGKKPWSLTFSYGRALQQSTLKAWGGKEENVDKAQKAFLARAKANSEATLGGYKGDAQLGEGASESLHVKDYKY
In words: coupled NADH assay, activity relative to control. The following applies: read-out: % residual activity at 5.0 mM.

Assay [2] has as its target T2, AtFBA5 (SUMO-AtFBA5) (Arabidopsis thaliana, UniProt O65581).
T2 sequence (O65581 1-358): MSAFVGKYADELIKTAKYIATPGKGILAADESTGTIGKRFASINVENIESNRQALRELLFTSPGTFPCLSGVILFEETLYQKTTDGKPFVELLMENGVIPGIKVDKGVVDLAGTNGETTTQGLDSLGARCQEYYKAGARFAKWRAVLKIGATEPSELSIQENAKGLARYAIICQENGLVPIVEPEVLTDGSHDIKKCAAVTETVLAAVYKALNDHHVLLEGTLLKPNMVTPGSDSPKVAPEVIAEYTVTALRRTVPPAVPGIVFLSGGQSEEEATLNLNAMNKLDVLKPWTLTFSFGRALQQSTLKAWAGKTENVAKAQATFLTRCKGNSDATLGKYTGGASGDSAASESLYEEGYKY
The assay is described as follows: coupled NADH assay, activity relative to control.

The target of assay [3] is T1, AtFBA4 (SUMO-AtFBA4). In words: coupled NADH assay at […] nm, FBP saturation curves with inhibitor.
For assay [4], the target named is T2, AtFBA5 (SUMO-AtFBA5). The description is as above.

Residues, ends and D or L forms follow the SMILES beside them.

Regarding `O=C(O)CCC(=O)C(=O)O` [2-OG], at AtFBA4 (SUMO-AtFBA4) [1], the remaining activity at 5000 µM is 69 ± 2%.
With `O=C(O)C[C@H](O)C(=O)O` [Malate], the remaining activity at 5000 µM at AtFBA4 (SUMO-AtFBA4) [1] came out at 68 ± 12%.
Consider `O=P(O)(O)OP(=O)(O)O` [PPi], for which the “% of control activity at 1.0 mM” value on AtFBA5 (SUMO-AtFBA5) [2] (pH 7.5, 250 µM FBP) is reported as 144 ± 10%.
Consider `N[C@@H](Cc1ccc(O)cc1)C(=O)N[C@@H](CC(=O)O)C(=O)O` [Tyr-Asp] (H-Tyr-Asp-OH), for which the remaining activity at 500 µM at AtFBA5 (SUMO-AtFBA5) [2] (read-out: % residual activity at 0.50 mM) amounted to 82 ± 5%.
In the case of `O=c1c(O)c(-c2ccc(O)cc2O)oc2cc(O)cc(O)c12` [morin, 3,5,7,2′,4′-pentahydroxyflavone], the Ki on AtFBA4 (SUMO-AtFBA4) [3] stood at 80 ± 10 µM; on AtFBA5 (SUMO-AtFBA5) [4] it was 63 ± 4 µM.

As usually defined, the Ki is a dissociation constant, usually derived from enzyme kinetics or from competition with a known ligand. A low value points to higher affinity.
